Test results: patent US20130189764A1, “SELECTIVE GROWTH MEDIA” (Oxide Limited, priority 2000, published 2013)
Converted amounts (≈) assume the structure as drawn.

Legend:
S. aureus 198 = assay: MIC in DMSal medium (Example 17); format: cell-based; details: S. aureus 198, DMSal medium
From the text: (§1) Isoleucyl-AEP and sarcosyl-alanyl-AEP were compared to ala-AEP (all in DMSal medium) for the ability to selectively recover two clinically important pathogenic bacteria: Salmonella and Staphylococcus aureus.

S. aureus (MRSA) 934 = assay: MIC in DMSal medium (Example 17); format: cell-based; details: S. aureus (MRSA) 934, DMSal medium
From the text: as §1

S. aureus ss aureus 2355 = assay: MIC in DMSal medium (Example 17); format: cell-based; details: S. aureus ss aureus 2355, DMSal medium
From the text: as §1

[1] = system: Enterococcus faecalis 581; assay: MIC in DMSal medium (Example 17); format: cell-based; details: Enterococcus faecalis 581, DMSal medium
From the text: as §1

[2] = system: Citrobacter, Enterobacter sakazakii and E. coli; assay: inhibition of the three undesired bacteria in DMSal (Example 17); format: cell-based
Procedure: as §1
(§2) For selective growth of Salmonella inhibition of Citrobacter, Enterobacter sakazakii and E. coli is important. […] Sarcosyl-alanyl-AEP used at a concentration of 1.0 μg/ml is sufficient to inhibit the growth of all three undesired bacteria while having no effect on growth of Salmonella typhimurium. […] Alternatively, a concentration of 2.0 μg/ml of isoleucyl-AEP is required to inhibit the growth of Citrobacter, Enterobacter sakazakii and E. coli and this concentration has no effect on the Salmonella typhimurium strain tested.

Enterococcus faecium 220 = assay: MIC in DMSal medium (Example 17); format: cell-based; details: Enterococcus faecium 220, DMSal medium
[3] = system: Salmonella typhimurium 722; assay: MIC in DMSal medium (Example 17); format: cell-based; details: for MIC: Salmonella typhimurium 722, DMSal medium; for effect on growth of Salmonella typhimurium: DMSal
Procedure: as §1, §2

[4] = system: Enterococcus faecalis 501; assay: MIC in DMSal medium (Example 17); format: cell-based; details: Enterococcus faecalis 501, DMSal medium
Citrobacter freundii 370 = assay: MIC in DMSal medium (Example 17); format: cell-based; details: Citrobacter freundii 370, DMSal medium
[5] = system: Enterobacter sakazakii 1888; assay: MIC in DMSal medium (Example 17); format: cell-based; details: Enterobacter sakazakii 1888, DMSal medium
E. coli 607 = assay: MIC in DMSal medium (Example 17); format: cell-based; details: E. coli 607, DMSal medium
[6] = system: Enterococcus faecalis 640; assay: MIC in DMSal medium (Example 17); format: cell-based; details: Enterococcus faecalis 640, DMSal medium
[7] = log octanol/water; footnote a: Leo et al (1971); cited from earlier work
[8] = system: Staphylococcus aureus OCC 102; assay: growth on nutrient agar streak plates, pure culture (Example 5); format: cell-based; details: S. aureus OCC 102, nutrient agar, all concentrations tested (up to 10 mM)
From the text: Example 1 was repeated using Staphylococcus aureus OCC 102 as the test organism.

[9] = system: Salmonella typhimurium OCC 1870; assay: growth on nutrient agar streak plates, pure culture (Example 2); format: cell-based; details: S. typhimurium OCC 1870, nutrient agar, 0-10 mM tested
From the text: Example 1 was repeated, using Salmonella typhimurium OCC 1870 as the test organism. The results are shown in FIG. 3, which uses the same key as FIG. 2.

B. subtilis OCC 214 = assay: growth on nutrient agar, mixed culture with K. pneumoniae (Example 8); format: cell-based, Bacillus subtilis; details: B. subtilis in mixed culture with K. pneumoniae
From the text: (§3) Example 6 was repeated, this time using a mixed culture of B. subtilis OCC 214 and K. pneumoniae CMCC 3077, in the presence of AEP or alaphosphin. The empty columns show the growth of B. subtilis, the shaded columns denote growth of K. pneumoniae.

K. pneumoniae CMCC 3077 [10] = assay: growth on nutrient agar, mixed culture with B. subtilis (Example 8); format: cell-based, Klebsiella pneumoniae; details: all concentrations tested
From the text: as §3

S. aureus OCC 102 = assay: growth on nutrient agar, mixed culture with K. pneumoniae (Example 6); format: cell-based, Staphylococcus aureus
From the text: (§4) Example 1 was repeated, this time using a mixed culture of K. pneumoniae CMCC 3077 and S. aureus OCC 102. The results for growth in the presence of AEP or alaphosphin are shown in FIGS. 7 and 8 respectively: empty columns represent growth of S. aureus, the shaded columns represent growth of K. pneumoniae. […] Accordingly, there is a considerable alaphosphin concentration range over which S. aureus will readily grow whilst K. pneumoniae will be inhibited. Even if K. pneumoniae cells lyse due to the toxic effect of AEP released intracellularly, the AEP is not toxic for S. aureus at the concentrations involved.

[11] = system: Enterococcus faecalis OCC 640; assay: growth on nutrient agar streak plates, pure culture (Example 3); format: cell-based; details: E. faecalis OCC 640, nutrient agar, 0-10 mM tested
From the text: Example 1 was repeated using Enterococcus faecalis OCC 640 as the test organism.

[12] = system: Klebsiella pneumoniae CMCC 3077; assay: growth on nutrient agar streak plates, pure culture (Example 4); format: cell-based; details: K. pneumoniae CMCC 3077, nutrient agar, 0-10 mM tested
From the text: Example 1 was repeated using Klebsiella pneumoniae CMCC 3077 as the test organism. The results are shown in FIG. 5, and are qualitatively similar to those obtained in example 2.

[13] = system: Bacillus subtilis strain OCC 214; assay: growth on nutrient agar streak plates, pure culture (Example 1); format: cell-based; details: B. subtilis OCC214, nutrient agar, 0-10 mM tested
From the text: In example 1 the sensitivity of Bacillus subtilis strain OCC 214 to alaphosphin or AEP was investigated. […] The organism is known to be LALA-ve, so the observations agree with the known characteristics of the organism.

[14] = system: heat stressed Salmonella typhimurium (OCC 1792); assay: resuscitation of heat-stressed cells, microtitre MPN method (Example 14); format: cell-based; details: BPW supplemented with 3 different levels of AEP, relative to BPW alone
Procedure: Salmonella typhimurium (OCC 1792) was heat stressed at 51.4° C. for 25 minutes according to the protocol of Stephens et al. (1997 J. Appl. Micro. 8, 445-455). Cells were diluted in 7 different resuscitation media: yeast extract broth with a high reactive oxygen species content that is inhibitory to stressed cells, SPRINT enrichment broth supplemented with Oxyrase that is an optimised resuscitation medium, BPW as the control that has typical resuscitation properties, BPW supplemented with NaCl that is inhibitory to stressed cells, and BPW supplemented with 3 different levels of AEP. Resuscitation was quantified using a microtitre MPN method.
Typical results are shown in FIG. 20 which is a bar chart showing the difference in growth (Log cfu/ml) of the stressed cells in various media relative to growth in BPW alone.

K. pneumoniae CMCC 3077 [15] = assay: growth on nutrient agar, mixed culture with S. aureus (Example 6); format: cell-based, Klebsiella pneumoniae
From the text: as §4

[16] = system: Klebsiella pneumoniae CMCC3077; assay: total viable count in Nutrient Broth (Example 10); format: cell-based; details: 5 mM in Nutrient Broth, 37° C.
Procedure: Growth curve data on the activity of alaphosphin towards Klebsiella spp. was generated. Particular attention was paid to measuring the kinetics of inhibition in broth culture. The media used in this work were Buffered Peptone Water, Nutrient Broth and Tryptone Soya Agar. The media were prepared according to the manufacturer's instructions.
The selective agents, AEP (Cat. No. 06655) and alaphosphin (Cat. No. 05260), were supplied by Fluka. They were dissolved in water at 0.5M concentration, filter-sterilised, and 100 μl added to 10 ml of Nutrient Broth to give a final concentration in the test medium of 5 mM of AEP or alaphosphin respectively.
Klebsiella pneumnoniae CMCC3077 was chosen, as it is a food isolate and work had been carried out previously on this organism using alaphosphin and AEP (see preceding examples). The organism was inoculated into Nutrient Broth and incubated overnight at 37° C. […] The test media were incubated at 37° C., and sampled at hourly intervals. The cultures were serially diluted in Buffered Peptone Water and inoculated onto Tryptone Soya Agar. These plates were incubated overnight at 37° C. and the total viable count made the next day.
Typical results are shown in FIG. 15 which is a graph of total viable count (log10 cfu/ml) against time (hours).

E. coli OCC 2129 = assay: Bioscreen growth, comparison with conventional selective agents (Example 12); format: cell-based, Escherichia coli; details: at 12 hours
Procedure: (§5) The following is an example to illustrate the beneficial lower toxic properties of the new selective agents towards the target microorganism, in this case Salmonella. Two selective agents, cefsulodin and novobiocin, as used conventionally in Salmonella isolation from foods (Humphrey and Whitehead, 1992 British Poultry Science 33, 761-768) were compared with alaphosphin. All were dissolved in deionised water, filter sterilised, and an amount of the solution added to either autoclaved Lab-Lemco broth+phosphate buffer (20 g/l; pH 6.0; ala-AEP) or Buffered Peptone Water (pH 6.8; cefsulodin and novobiocin) to give final concentrations of 66, 16.5 and 11 μg/ml respectively. [The different pH values reflect the different pH optima of the selective agents (ala-AEP was also subsequently used in BPW at pH 6.8 and similar results obtained)]. Volumes (300 μl) were then pipetted into the wells of Bioscreen microtitre plates and 30 μl quantities of 1 in 10,000 dilutions of overnight cultures of E. coli OCC 2129 and Salmonella typhimurium OCC 722, added. Plates were then covered, incubated at 37° C., and the opacity of the organism suspensions measured using a Bioscreen instrument.
(§6) Typical results are shown in FIGS. 17-19, which are graphs of optical density against time for S. typhimurium (circles) and E. coli (squares) in the presence (empty symbols) or absence (filled symbols) of 15 μg/ml cefsulodin (FIG. 17), 10 μg/ml novobiocin (FIG. 18) or 60 μg/ml alaphosphin (FIG. 19).

[17] = system: Salmonella typhimurium OCC 722; assay: as above; format: cell-based; details: Buffered Peptone Water pH 6.8
Procedure: as §5, §6

[18] = system: E. faecalis 640 and S. aureus 106; assay: selective recovery of S. aureus on DMSal agar seeded with E. faecalis (Example 18); format: cell-based, Enterococcus faecalis, Staphylococcus aureus; details: 20 μg/ml, DMSal agar with horse serum (50 ml/L), approximately 24 hours at 37° C.
Procedure: The effectiveness of sulfacetamide-β-D-galactoside as a selective agent for recovery of S. aureus in the presence of E. faecalis was tested. Sulfacetamide-β-D-galactoside (20 μg/ml) and horse serum (50 ml/L) was added to DMSal agar to make the test plates; DMSal agar without sulfacetamide-β-D-galactoside served as the control. All plates (with and without sulfacetamide-β-D-galactoside) were seeded with E. faecalis 640 and half of the total number of plates (with and without sulfacetamide-β-D-galactoside) were streaked with S. aureus 106. All plates were incubated for approximately 24 hours at 37° C.
As FIGS. 22a and 22b show, all plates without sulfacetamide-β-D-galactoside supported growth of E. faecalis.

SMILES: CNCC(=O)NC(C)C(=O)NC(C)P(=O)(O)O (stereo not drawn)
- MIC (S. aureus 198): >100 µg/mL
- MIC (S. aureus (MRSA) 934): >100 µg/mL
- MIC (S. aureus ss aureus 2355): >100 µg/mL
- MIC [1]: 8 µg/mL (≈ 29.9 µM)
- concentration sufficient / required to inhibit the growth of all three undesired bacteria [2]: 1.0 µg/mL
- MIC (Enterococcus faecium 220): >256 µg/mL
- MIC [3]: 2.0 µg/mL (≈ 7.48 µM)
- effect on growth of Salmonella typhimurium ([3]; sarcosyl-alanyl-AEP at 1.0 μg/ml): no effect
- MIC [4]: 8 µg/mL (≈ 29.9 µM)
- MIC (Citrobacter freundii 370): 1.0 µg/mL (≈ 3.74 µM)
- MIC [5]: 0.01 µg/mL (≈ 0.0374 µM)
- MIC (E. coli 607): 0.05 µg/mL (≈ 0.187 µM)
- MIC [6]: 16 µg/mL (≈ 59.9 µM)

SMILES: O=[N+]([O-])c1ccccc1O [2-nitrophenol]
- Log Partition Coefficient [7]: 2.00^a

SMILES: CC(N)P(=O)(O)O [AEP, L-1-aminoethylphosphonic acid, reference compound]
- sensitivity of growth (in words) [8]: completely insensitive
- concentration at which growth is completely inhibited [9]: > 10 mM
- concentration above which some sensitivity is exhibited (B. subtilis OCC 214): above 5 mM
- sensitivity of growth (in words) (K. pneumoniae CMCC 3077 [10]): insensitive
- inhibition of growth (in words) (S. aureus OCC 102): neither organism was inhibited
- concentration at which growth is completely inhibited [11]: ≥ 5 mM
- concentration at which growth is completely inhibited [12]: > 10 mM
- concentration at which growth is inhibited [13]: ≥ 5 mM
- effect on resuscitation of heat-stressed Salmonella [14]: did not significantly affect
- inhibition of growth (in words) (K. pneumoniae CMCC 3077 [15]): neither organism was inhibited
- effect on growth compared with Nutrient Broth control [16]: little effect

SMILES: Nc1ccccc1 [Aniline]
- Log Partition Coefficient [7]: 0.94^a

SMILES: NC(=O)c1cc[n+](CC2=C(C(=O)O)N3C(=O)[C@@H](NC(=O)[C@@H](c4ccccc4)S(=O)(=O)[O-])[C@H]3SC2)cc1 [cefsulodin]
- growth of E. coli relative to S. typhimurium (E. coli OCC 2129; 15 μg/ml cefsulodin): substantially outgrows
- effect on growth of S. typhimurium ([17]; 15 μg/ml cefsulodin): significantly inhibit

SMILES: CCC(C)C(N)C(=O)NC(C)P(=O)(O)O (stereo not drawn) [isoleucyl-AEP, Isoleucyl-AEP]
- MIC (S. aureus ss aureus 2355): >200 µg/mL
- MIC [1]: 5 µg/mL (≈ 21 µM)
- concentration sufficient / required to inhibit the growth of all three undesired bacteria [2]: 2.0 µg/mL
- MIC (Enterococcus faecium 220): 5 µg/mL (≈ 21 µM)
- MIC [3]: 10 µg/mL (≈ 42 µM)
- effect on growth of Salmonella typhimurium ([3]; isoleucyl-AEP at 2.0 μg/ml): no effect
- MIC [4]: 5 µg/mL (≈ 21 µM)
- MIC (Citrobacter freundii 370): 2.0 µg/mL (≈ 8.4 µM)
- MIC [5]: 2.0 µg/mL (≈ 8.4 µM)
- MIC (E. coli 607): 2.0 µg/mL (≈ 8.4 µM)
- MIC [6]: 5 µg/mL (≈ 21 µM)

SMILES: CO[C@@H]1[C@@H](OC(N)=O)[C@@H](O)[C@H](Oc2ccc3c(O)c(NC(=O)c4ccc(O)c(CC=C(C)C)c4)c(=O)oc3c2C)OC1(C)C [novobiocin]
- growth of E. coli relative to S. typhimurium (E. coli OCC 2129; 10 μg/ml novobiocin): substantially outgrows
- effect on growth of S. typhimurium ([17]; 10 μg/ml novobiocin): significantly inhibit

SMILES: CC(=O)NS(=O)(=O)c1ccc(N[C@@H]2O[C@H](CO)[C@H](O)[C@H](O)[C@H]2O)cc1 [sulfacetamide-β-D-galactoside]
- colonies observed on plates seeded with E. faecalis and streaked with S. aureus [18]: only colonies of S. aureus were observed
